Measured values published in ChEMBL document CHEMBL5244272 (Eur J Med Chem, 2021).
≈ marks a conversion by molar mass, not a printed value.

Legend:
Plasmodium berghei [1] = experiment: Antimalarial activity against Plasmodium berghei ANKA infected in mouse at 30 mg/kg, po; assay type: functional
Plasmodium yoelii [2] = experiment: Antimalarial activity against Plasmodium yoelii BY265 infected in mouse assessed reduction in parasitemia at 4.4 to […], iv administered for 4 consecutive days; assay type: functional; parameters: scale not given: the % may be the effect or the level left
Plasmodium berghei [3] = experiment: Antimalarial activity against Plasmodium berghei ANKA infected in mouse at 30 mg/kg; assay type: functional
Plasmodium falciparum [4] = experiment: Antimalarial activity against Plasmodium falciparum 3D7; assay type: functional, organism-based; details: for EC50: read-out: EC50
Plasmodium berghei [5] = experiment: Antimalarial activity against Plasmodium berghei ANKA infected in po dosed mouse; assay type: functional; details: Plasmodium berghei, ANKA
Plasmodium berghei [6] = experiment: Antimalarial activity against Plasmodium berghei infected in mouse at less than 10 mg/kg, po; assay type: functional
Cytomegalovirus = experiment: Antiviral activity against HCMV; assay type: functional, organism-based; details: Human betaherpesvirus 5
Plasmodium falciparum [7] = experiment: Potency index, ratio of artemisinin IC50 to test compound IC50 for Plasmodium falciparum HB3; assay type: functional
Plasmodium falciparum [8] = experiment: Potency index, ratio of artemisinin IC50 to test compound IC50 for Plasmodium falciparum K1; assay type: functional
ADR5000 cell line = experiment: Cytotoxicity against human CEM/ADR5000 cells; assay type: functional, cell-based
CCRF-CEM = experiment: Cytotoxicity against human CCRF-CEM cells; assay type: functional, cell-based
Plasmodium yoelii [9] = experiment: Antimalarial activity against multidrug resistant Plasmodium yoelii infected in swiss mouse assessed as reduction in parasitaemia at 96 mg/kg, po; assay type: functional; parameters: scale not given: the % may be the effect or the level left
Plasmodium yoelii [10] = experiment: Antimalarial activity against multidrug resistant Plasmodium yoelii infected in swiss mouse assessed as reduction in parasitaemia at 48 mg/kg, po measured on day 4; assay type: functional; parameters: scale not given: the % may be the effect or the level left; details: time 4 day
Plasmodium yoelii [11] = experiment: Antimalarial activity against multidrug resistant Plasmodium yoelii infected in swiss mouse assessed as increase in survival at 48 mg/kg, po after 28 days; assay type: functional; details: time 28 day
Plasmodium berghei [12] = experiment: Antimalarial activity against Plasmodium berghei infected in sc dosed mouse; assay type: functional; details: Plasmodium berghei
Plasmodium falciparum [13] = experiment: Antimalarial activity against Plasmodium falciparum D6; assay type: functional, organism-based
Plasmodium berghei [14] = experiment: Potency index, ratio of artesunate ED90 to test compound ED90 for Plasmodium berghei; assay type: functional
Plasmodium yoelii [15] = experiment: Antimalarial activity against Plasmodium yoelii infected in sc dosed mouse; assay type: functional
Plasmodium falciparum [16] = experiment: Antimalarial activity against Plasmodium falciparum W2; assay type: functional, organism-based
Plasmodium yoelii [17] = experiment: Potency index, ratio of artesunate ED90 to test compound ED90 for Plasmodium yoelii; assay type: functional
Plasmodium berghei [18] = experiment: Antimalarial activity against Plasmodium berghei infected in mouse assessed cured animal rate measured after 25 days; assay type: functional; details: time 25 day
Plasmodium berghei [19] = experiment: Antimalarial activity against Plasmodium berghei infected in mouse assessed reduction in parasitemia measured after 4 days; assay type: functional; parameters: scale not given: the % may be the effect or the level left; details: time 4 day
Plasmodium berghei [20] = experiment: Antimalarial activity against Plasmodium berghei infected in mouse assessed increase in survival time; assay type: functional
Plasmodium yoelii [21] = experiment: Antimalarial activity against multidrug resistant Plasmodium yoelii infected in swiss mouse assessed as increase in survival at 96 mg/kg, po after 28 days; assay type: functional; details: time 28 day
Plasmodium yoelii [22] = experiment: Antimalarial activity against multidrug resistant Plasmodium yoelii infected in swiss mouse assessed as reduction in parasitaemia at 96 mg/kg, po measured on day 4; assay type: functional; parameters: scale not given: the % may be the effect or the level left; details: time 4 day

For `O=C(CC1CCC2(CC1)OOC1(OO2)C2CC3CC(C2)CC1C3)NC1CC1` (stereo not drawn), the Activity (Plasmodium berghei [1]) was 100%.
With `CCCCCCCCCCCCCC[N+](C)(C)CCOC(=O)c1ccc(COC2O[C@@H]3O[C@]4(C)CC[C@H]5[C@H](C)CC[C@@H]([C@H]2C)[C@@]35OO4)cc1.[Br-]` (stereo partly drawn) the Activity (Plasmodium yoelii [2]) was >50%.
With `FC1CCN(CCOc2ccc(C3CCC4(CC3)OOC3(OO4)C4CC5CC(C4)CC3C5)cc2)CC1` (stereo not drawn) the Activity (Plasmodium berghei [3]) was 99.65% and the IC50 (Plasmodium falciparum [4]) was 5.1 nM.
`O=C(CC1CCC2(CC1)OOC1(OO2)C2CC3CC(C2)CC1C3)N1CCOCC1` (stereo not drawn) gave an ED90 (Plasmodium berghei [5]) of 3.88 mg/kg and an Activity (Plasmodium berghei [1]) of 100%.
Work on `C[C@@H]1CC[C@H]2C(CN3CCN(CCO)CC3)=C(C(F)(F)F)O[C@@H]3O[C@]4(C)CC[C@@H]1[C@]32OO4` yielded an Activity (Plasmodium berghei [6]) of 100%.
Compound `C[C@H]1[C@H](OC(=O)CCC(=O)OCCOC(=O)CC(=O)OCCOC(=O)CCC(=O)O[C@@H]2O[C@@H]3O[C@]4(C)CC[C@H]5[C@H](C)CC[C@@H]([C@H]2C)[C@@]35OO4)O[C@@H]2O[C@]3(C)CC[C@H]4[C@H](C)CC[C@@H]1[C@@]24OO3` has an EC50 (Cytomegalovirus) of 0.57 nM and an EC50 (Plasmodium falciparum [4]) of 1.4 nM.
In the case of `COP(=O)(OCC[C@H]1O[C@@H]2O[C@]3(C)CC[C@H]4[C@H](C)CC[C@@H]([C@H]1C)[C@@]24OO3)OCC[C@H]1O[C@@H]2O[C@]3(C)CC[C@H]4[C@H](C)CC[C@@H]([C@H]1C)[C@@]24OO3`, the “Ratio IC50” value (Plasmodium falciparum [7]) is reported as >50 and the “Ratio IC50” value (Plasmodium falciparum [8]) is reported as >50.
Work on `C[C@H]1[C@H](OC(=O)CCC(=O)Nc2ccc3ncnc(Cc4ccc(Cl)c(Cl)c4)c3c2)O[C@@H]2O[C@]3(C)CC[C@H]4[C@H](C)CC[C@@H]1[C@@]24OO3` yielded an EC50 (ADR5000 cell line) of 500 nM, an EC50 (CCRF-CEM) of 2800 nM and an EC50 (Plasmodium falciparum [4]) of 1.4 nM.
Work on `C=C(c1ccc(-c2ccccc2)cc1)C1COC2(CCC(Nc3ccccc3)CC2)OO1` (stereo not drawn) yielded an Activity (Plasmodium yoelii [9]) of 100%, an Activity (Plasmodium yoelii [10]) of 100% and an Activity (Plasmodium yoelii [11]) of 60%.
Work on `C[C@H]1[C@H](Nc2ccc(F)cc2)O[C@@H]2O[C@]3(C)CC[C@H]4[C@H](C)CC[C@@H]1[C@@]24OO3` yielded an ED90 (Plasmodium berghei [12]) of 0.35 mg/kg, an IC50 (Plasmodium falciparum [13]) of 0.64 ng/mL (≈ 1.7 nM) and a Ratio (Plasmodium berghei [14]) of 13. It also gave an ED90 (Plasmodium yoelii [15]) of 0.6 mg/kg, an IC50 (Plasmodium falciparum [16]) of 0.64 ng/mL (≈ 1.7 nM) and a Ratio (Plasmodium yoelii [17]) of 13.
For `CCN(CC)Cc1cc(C2CCC3(CC2)OOC2(OO3)C3CC4CC(C3)CC2C4)ccc1O` (stereo not drawn), the Activity (Plasmodium berghei [18]) was 66%, the Activity (Plasmodium berghei [19]) was >99.7% and the Time (Plasmodium berghei [20]) was 27 days.
`C=C(c1ccccc1)C1COC2(OO1)C1CC3CC(C1)CC2C3` (stereo not drawn) showed an Activity (Plasmodium yoelii [21]) of 80% and an Activity (Plasmodium yoelii [22]) of 96%.
